Data taken from patent US20090227493A1, “COMBINED DRUG FOR TREATING DIABETES” (DAIICHI SANKYO COMPANY, LIMITED, priority 2005, published 2009).

How the values were obtained:
[1] = tested on: diabetic obese rats (male ZDF rats); assay: Test Example 1: effect of combined use of GLP-1 (7-36) amide and compound A; format: in vivo, rat; settings: from start of treatment to 57 days; FIG. 1-C
From the text: In this test, commercially available diabetic obese rats (male ZDF rats, 8 weeks old at the start of administration, purchased from Charles River Laboratories Japan, Inc.) were used. ZDF rats used in this test were acclimatized to the feeding time from 9:30 to 16:30 from one week before the start of treatment.
Rats were divided into four groups: the control group, compound A treatment group (group A), GLP-1 (7-36) amide treatment group (group B), and compound A plus GLP-1 (7-36) amide treatment group (group C).
The control group and group B were allowed free access to a powder feed (FR-2: Funabashi Farms Co., Ltd.) from 9:30 to 16:30. […] The dose of compound A was calculated as 16.1 μg/kg/day based on the food intake during this period. […]
Glycosylated hemoglobin (HbA1c) levels were measured at 42 days after the start of treatment, and blood sugar levels in full feeding were measured at 47 days. […]
Furthermore, insulin in the pancreas was extracted by the hydrochloric acid-ethanol method (Diabetelogia, Vol. 27, pp. 454-459 [1984]), and the insulin concentration in the extract was determined by using a rat insulin RIA kit manufactured by Linco Research, Inc. to obtain the pancreatic insulin content. […]
Blood was collected from the caudal vein of the rats, and blood sugar levels were measured with Glucoroder GXT (A & T Corporation). HbA1c levels were measured with DC2000 (Bayer Medical Ltd.).

[2] = tested on: diabetic obese rats (male ZDF rats); assay: Test Example 2: effect of combined use of various GLP-1 receptor agonists and compound A, same manner as Test Example 1; settings: combined use with compound A

Row | Compound | increases in body weight (weight gain) [1] | weight gain by compound A [2] | decrease in HbA1c levels [2] | pancreatic insulin content [2]
1 | COc1ccc2nc(COc3ccc(CC4SC(=O)NC4=O)cc3)n(C)c2c1 (centres unmarked) [compound A, 5-[4-(6-Methoxy-1-methyl-1H-benzimidazol-2-ylmethoxy)benzyl]thiazolidine-2,4-dione] | weight gain |  |  | 
2 | CCCCCCCCCCCCCCCC(=O)N[C@@H](CCC(=O)NCCCC[C@H](NC(=O)[C@H](C)NC(=O)[C@H](C)NC(=O)[C@H](CCC(N)=O)NC(=O)CNC(=O)[C@H](CCC(=O)O)NC(=O)[C@H](CC(C)C)NC(=O)[C@H](Cc1ccc(O)cc1)NC(=O)[C@H](CO)NC(=O)[C@H](CO)NC(=O)[C@@H](NC(=O)[C@H](CC(=O)O)NC(=O)[C@H](CO)NC(=O)[C@@H](NC(=O)[C@H](Cc1ccccc1)NC(=O)[C@@H](NC(=O)CNC(=O)[C@H](CCC(=O)O)NC(=O)[C@H](C)NC(=O)[C@@H](N)Cc1cnc[nH]1)[C@@H](C)O)[C@@H](C)O)C(C)C)C(=O)N[C@@H](CCC(=O)O)C(=O)N[C@@H](Cc1ccccc1)C(=O)N[C@H](C(=O)N[C@@H](C)C(=O)N[C@@H](Cc1c[nH]c2ccccc12)C(=O)N[C@@H](CC(C)C)C(=O)N[C@H](C(=O)N[C@@H](CCCNC(=N)N)C(=O)NCC(=O)N[C@@H](CCCNC(=N)N)C(=O)NCC(=O)O)C(C)C)[C@@H](C)CC)C(=O)O [Arg^34 Lys^26(N^6-(γ-L-glutamyl(N^α-palmitoyl))) GLP-1 (7-37)] |  | suppressing |  | 
3 | exendin 3 |  | suppressing | synergistic effect | marked increase
